Results taken from the kinase profiling compilation of Christmann-Franck et al. (2016).

How the values were obtained:
Test in all cases: radiometric filter-binding kinase assay
AURKB (human) = AURKB (human) (UniProt Q96GD4)
CDK2 CCNA2 (human) = CDK2 CCNA2 (human) (UniProt P20248+P24941)
CHEK2 (human) = CHEK2 (human) (UniProt O96017)
CSK (human) = CSK (human) (UniProt P41240)
CSNK2A1 (human) = CSNK2A1 (human) (UniProt P68400)
DAPK1 (human) = DAPK1 (human) (UniProt P53355)
EEF2K (human) = EEF2K (human) (UniProt O00418)
EPHB3 (human) = EPHB3 (human) (UniProt P54753)
ERBB4 (human) = ERBB4 (human) (UniProt Q15303)
FGFR1 (human) = FGFR1 (human) (UniProt P11362)
FGFR1 (human), sequence (P11362 whole entry, looked up): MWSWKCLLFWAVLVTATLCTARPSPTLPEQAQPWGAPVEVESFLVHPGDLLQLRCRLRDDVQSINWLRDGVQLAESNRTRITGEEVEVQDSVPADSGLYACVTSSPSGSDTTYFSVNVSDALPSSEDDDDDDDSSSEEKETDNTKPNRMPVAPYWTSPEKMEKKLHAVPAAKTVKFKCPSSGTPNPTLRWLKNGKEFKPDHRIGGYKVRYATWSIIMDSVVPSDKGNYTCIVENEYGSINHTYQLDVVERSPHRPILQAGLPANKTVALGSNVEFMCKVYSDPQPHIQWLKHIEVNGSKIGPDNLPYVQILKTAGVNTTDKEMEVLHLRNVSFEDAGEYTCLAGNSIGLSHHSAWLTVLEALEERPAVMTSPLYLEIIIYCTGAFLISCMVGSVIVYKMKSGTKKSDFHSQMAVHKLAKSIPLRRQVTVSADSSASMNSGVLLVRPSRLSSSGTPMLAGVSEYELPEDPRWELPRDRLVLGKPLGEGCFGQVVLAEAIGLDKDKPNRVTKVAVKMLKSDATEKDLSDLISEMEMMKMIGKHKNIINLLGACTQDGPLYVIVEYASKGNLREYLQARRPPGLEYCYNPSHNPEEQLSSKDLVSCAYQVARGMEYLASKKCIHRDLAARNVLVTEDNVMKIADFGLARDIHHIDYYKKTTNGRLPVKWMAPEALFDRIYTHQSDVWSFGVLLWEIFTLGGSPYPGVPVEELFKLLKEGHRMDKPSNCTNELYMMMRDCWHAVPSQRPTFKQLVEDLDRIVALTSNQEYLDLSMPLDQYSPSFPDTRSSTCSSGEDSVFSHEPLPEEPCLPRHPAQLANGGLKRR

GSK3B (human) = GSK3B (human) (UniProt P49841)
IKBKB (human) = IKBKB (human) (UniProt O14920)
INSRR (human) = INSRR (human) (UniProt P14616)
LCK (mouse) = settings: accession and sequence are those of the human protein
MAP2K2 (human) = MAP2K2 (human) (UniProt P36507)
MAP3K9 (human) = MAP3K9 (human) (UniProt P80192)
MAPK1 (human) = MAPK1 (human) (UniProt P28482)
MAPK13 (human) = MAPK13 (human) (UniProt O15264)
MAPKAPK3 (human) = MAPKAPK3 (human) (UniProt Q16644)
MARK4 (human) = MARK4 (human) (UniProt Q96L34)
MELK (human) = MELK (human) (UniProt Q14680)
MINK1 (human) = MINK1 (human) (UniProt Q8N4C8)
MINK1 (human), sequence (Q8N4C8 whole entry, looked up): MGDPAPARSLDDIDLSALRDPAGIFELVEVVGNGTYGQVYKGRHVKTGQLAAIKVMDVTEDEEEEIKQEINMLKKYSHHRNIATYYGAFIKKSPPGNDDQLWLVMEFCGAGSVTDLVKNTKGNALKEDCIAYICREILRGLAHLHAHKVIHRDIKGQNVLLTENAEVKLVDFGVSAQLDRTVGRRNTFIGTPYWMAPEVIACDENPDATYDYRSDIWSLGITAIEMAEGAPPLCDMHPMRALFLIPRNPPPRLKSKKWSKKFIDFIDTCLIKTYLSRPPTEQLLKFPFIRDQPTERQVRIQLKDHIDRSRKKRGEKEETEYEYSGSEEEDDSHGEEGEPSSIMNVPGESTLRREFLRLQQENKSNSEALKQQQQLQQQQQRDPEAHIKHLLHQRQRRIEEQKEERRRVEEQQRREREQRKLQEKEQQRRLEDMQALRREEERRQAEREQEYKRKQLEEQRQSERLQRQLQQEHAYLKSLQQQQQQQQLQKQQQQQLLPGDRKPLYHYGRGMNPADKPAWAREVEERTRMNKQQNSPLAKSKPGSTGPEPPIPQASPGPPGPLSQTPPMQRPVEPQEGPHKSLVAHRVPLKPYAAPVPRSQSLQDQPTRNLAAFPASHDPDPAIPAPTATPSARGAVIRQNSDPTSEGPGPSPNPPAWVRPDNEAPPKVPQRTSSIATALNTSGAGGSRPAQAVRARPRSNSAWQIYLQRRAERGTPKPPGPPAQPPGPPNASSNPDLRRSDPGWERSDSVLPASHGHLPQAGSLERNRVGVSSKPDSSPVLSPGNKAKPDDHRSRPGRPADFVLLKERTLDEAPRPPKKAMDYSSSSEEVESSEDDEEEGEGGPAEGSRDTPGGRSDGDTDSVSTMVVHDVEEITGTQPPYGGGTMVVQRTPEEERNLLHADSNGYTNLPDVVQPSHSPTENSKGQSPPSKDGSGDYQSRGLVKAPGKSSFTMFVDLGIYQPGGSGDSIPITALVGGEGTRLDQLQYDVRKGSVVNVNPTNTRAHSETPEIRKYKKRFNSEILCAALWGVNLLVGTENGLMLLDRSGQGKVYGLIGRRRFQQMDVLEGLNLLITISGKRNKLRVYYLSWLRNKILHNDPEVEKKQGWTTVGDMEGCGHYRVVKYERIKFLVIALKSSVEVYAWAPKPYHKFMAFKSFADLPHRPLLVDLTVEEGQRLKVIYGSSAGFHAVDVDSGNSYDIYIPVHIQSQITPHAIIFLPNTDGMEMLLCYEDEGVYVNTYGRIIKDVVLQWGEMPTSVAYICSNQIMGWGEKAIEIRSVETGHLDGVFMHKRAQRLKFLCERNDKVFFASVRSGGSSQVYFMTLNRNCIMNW

MKNK1 (human) = MKNK1 (human) (UniProt Q9BUB5)
MKNK2 (human) = MKNK2 (human) (UniProt Q9HBH9)
MYLK (human) = MYLK (human) (UniProt Q15746)
NTRK1 (human) = NTRK1 (human) (UniProt P04629)
PHKG1 (human) = PHKG1 (human) (UniProt Q16816)
PRKAA1 or PRKAA2 (rat) = settings: accession and sequence are those of the human protein
PRKACA (human) = PRKACA (human) (UniProt P17612)
PRKCZ (human) = PRKCZ (human) (UniProt Q05513)
PRKCZ (human), sequence (Q05513 whole entry, looked up): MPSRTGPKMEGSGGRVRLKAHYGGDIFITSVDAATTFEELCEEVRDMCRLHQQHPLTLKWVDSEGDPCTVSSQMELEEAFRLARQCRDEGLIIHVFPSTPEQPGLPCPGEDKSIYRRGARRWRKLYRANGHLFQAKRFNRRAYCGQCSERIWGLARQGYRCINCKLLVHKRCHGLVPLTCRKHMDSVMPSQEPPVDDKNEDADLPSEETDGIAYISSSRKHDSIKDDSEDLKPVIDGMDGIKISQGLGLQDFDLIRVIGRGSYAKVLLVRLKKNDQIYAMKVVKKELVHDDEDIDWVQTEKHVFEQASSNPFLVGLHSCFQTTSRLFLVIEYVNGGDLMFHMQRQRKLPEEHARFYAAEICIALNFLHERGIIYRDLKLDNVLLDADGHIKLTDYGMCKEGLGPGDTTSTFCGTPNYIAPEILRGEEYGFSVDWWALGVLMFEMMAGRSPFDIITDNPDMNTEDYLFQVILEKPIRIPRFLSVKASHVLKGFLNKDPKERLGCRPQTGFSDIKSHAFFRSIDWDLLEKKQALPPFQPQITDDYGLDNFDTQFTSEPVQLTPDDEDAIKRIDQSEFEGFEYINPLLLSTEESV

ROCK2 (rat) = settings: accession and sequence are those of the human protein
RPS6KA1 KD1 KD2 (human) = RPS6KA1 KD1 KD2 (human) (UniProt Q15418)
SRC (human) = SRC (human) (UniProt P12931)
[1] = biological target: STK11 CAB39 STRADA (human) (UniProt Q9Y376+Q7RTN6+Q15831)
STK11 CAB39 STRADA (human), sequence (Q15831 whole entry, looked up): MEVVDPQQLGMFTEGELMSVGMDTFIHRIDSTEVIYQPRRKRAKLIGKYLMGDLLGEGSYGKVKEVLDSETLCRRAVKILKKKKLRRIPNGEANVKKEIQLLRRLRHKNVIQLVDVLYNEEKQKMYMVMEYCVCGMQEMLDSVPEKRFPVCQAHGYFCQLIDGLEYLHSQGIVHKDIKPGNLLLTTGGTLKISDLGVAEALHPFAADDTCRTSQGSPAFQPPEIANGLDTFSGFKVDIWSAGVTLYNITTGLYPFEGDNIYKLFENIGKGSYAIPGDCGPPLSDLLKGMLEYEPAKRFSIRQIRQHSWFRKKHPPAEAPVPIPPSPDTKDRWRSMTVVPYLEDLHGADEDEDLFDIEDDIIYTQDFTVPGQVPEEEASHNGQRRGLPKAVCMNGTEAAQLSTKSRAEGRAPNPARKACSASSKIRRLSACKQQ
STK11 CAB39 STRADA (human), sequence (Q7RTN6 whole entry, looked up): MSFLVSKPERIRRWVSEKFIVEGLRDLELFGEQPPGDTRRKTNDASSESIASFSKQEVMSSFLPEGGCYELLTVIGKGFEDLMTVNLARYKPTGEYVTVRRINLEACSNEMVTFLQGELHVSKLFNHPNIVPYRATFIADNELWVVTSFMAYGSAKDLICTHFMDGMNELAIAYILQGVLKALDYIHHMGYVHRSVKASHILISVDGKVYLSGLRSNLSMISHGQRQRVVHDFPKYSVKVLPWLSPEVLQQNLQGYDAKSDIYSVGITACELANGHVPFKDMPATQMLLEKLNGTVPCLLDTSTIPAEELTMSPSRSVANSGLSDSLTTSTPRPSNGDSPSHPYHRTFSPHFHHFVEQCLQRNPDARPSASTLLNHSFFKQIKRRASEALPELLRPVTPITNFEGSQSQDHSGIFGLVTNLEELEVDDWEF
STK11 CAB39 STRADA (human), sequence (Q9Y376 whole entry, looked up): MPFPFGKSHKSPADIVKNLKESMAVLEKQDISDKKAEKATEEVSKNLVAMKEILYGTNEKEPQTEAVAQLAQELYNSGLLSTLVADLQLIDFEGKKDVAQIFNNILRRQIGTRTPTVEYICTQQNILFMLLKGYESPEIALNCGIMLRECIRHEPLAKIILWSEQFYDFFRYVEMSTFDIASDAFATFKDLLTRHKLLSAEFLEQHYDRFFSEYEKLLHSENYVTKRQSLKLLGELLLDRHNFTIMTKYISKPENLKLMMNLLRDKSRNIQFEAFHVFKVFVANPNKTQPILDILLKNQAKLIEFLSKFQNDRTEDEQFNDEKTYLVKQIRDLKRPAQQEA

TTK (human) = TTK (human) (UniProt P33981)

CSK (human), sequence (P41240 whole entry, looked up): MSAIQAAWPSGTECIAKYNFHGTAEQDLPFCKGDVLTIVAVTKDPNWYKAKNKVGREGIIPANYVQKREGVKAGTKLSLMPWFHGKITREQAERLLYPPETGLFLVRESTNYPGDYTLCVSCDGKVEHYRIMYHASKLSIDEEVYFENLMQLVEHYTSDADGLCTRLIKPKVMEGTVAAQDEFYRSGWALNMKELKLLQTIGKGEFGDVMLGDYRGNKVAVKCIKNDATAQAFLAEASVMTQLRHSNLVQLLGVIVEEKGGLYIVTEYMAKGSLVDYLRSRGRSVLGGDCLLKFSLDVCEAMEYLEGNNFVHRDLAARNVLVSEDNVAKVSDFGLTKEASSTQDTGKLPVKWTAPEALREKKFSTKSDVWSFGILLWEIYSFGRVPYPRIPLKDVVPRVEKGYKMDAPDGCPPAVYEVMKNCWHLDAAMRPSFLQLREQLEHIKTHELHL
CHEK2 (human), sequence (O96017 whole entry, looked up): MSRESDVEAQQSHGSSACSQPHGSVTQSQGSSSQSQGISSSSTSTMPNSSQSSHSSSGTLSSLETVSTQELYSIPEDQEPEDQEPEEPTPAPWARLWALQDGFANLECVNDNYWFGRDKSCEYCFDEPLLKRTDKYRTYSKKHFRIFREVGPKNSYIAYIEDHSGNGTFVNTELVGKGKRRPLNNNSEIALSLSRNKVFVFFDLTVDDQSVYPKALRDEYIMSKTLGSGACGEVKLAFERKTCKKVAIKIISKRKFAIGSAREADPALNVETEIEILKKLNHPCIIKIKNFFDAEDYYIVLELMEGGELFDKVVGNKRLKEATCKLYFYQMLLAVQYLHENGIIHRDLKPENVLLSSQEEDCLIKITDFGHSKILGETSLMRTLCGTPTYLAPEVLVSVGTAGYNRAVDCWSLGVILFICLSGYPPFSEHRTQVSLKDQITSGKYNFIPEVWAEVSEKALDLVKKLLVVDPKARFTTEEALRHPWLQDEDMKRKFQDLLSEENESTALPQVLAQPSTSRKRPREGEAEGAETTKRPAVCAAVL

`NC1(c2ccc(-c3nc4ccn5c(=O)[nH]nc5c4cc3-c3ccccc3)cc2)CCC1` showed a residual activity (AURKB (human); compound 0.1 µM) of 106%, a residual activity (AURKB (human); compound 1.0 µM) of 88% and a residual activity (AURKB (human); compound 10.0 µM) of 78%. For the same molecule, the residual activity (CDK2 CCNA2 (human); compound 0.1 µM) was 100%, the residual activity (CDK2 CCNA2 (human); compound 1.0 µM) was 84% and the residual activity (CDK2 CCNA2 (human); compound 10.0 µM) was 75%. It also gave a residual activity (CHEK2 (human); compound 0.1 µM) of 122%, a residual activity (CHEK2 (human); compound 1.0 µM) of 81% and a residual activity (CHEK2 (human); compound 10.0 µM) of 39%. It also gave a residual activity (CSK (human); compound 0.1 µM) of 92%, a residual activity (CSK (human); compound 1.0 µM) of 91% and a residual activity (CSK (human); compound 10.0 µM) of 85%. For the same molecule, the residual activity (CSNK2A1 (human); compound 0.1 µM) was 104%, the residual activity (CSNK2A1 (human); compound 10.0 µM) was 84% and the residual activity (DAPK1 (human); compound 0.1 µM) was 85%. For the same molecule, the residual activity (DAPK1 (human); compound 1.0 µM) was 90%, the residual activity (DAPK1 (human); compound 10.0 µM) was 48% and the residual activity (EEF2K (human); compound 0.1 µM) was 101%. For the same molecule, the residual activity (EEF2K (human); compound 1.0 µM) was 104%, the residual activity (EEF2K (human); compound 10.0 µM) was 109% and the residual activity (EPHB3 (human); compound 0.1 µM) was 112%. The residual activity (EPHB3 (human); compound 1.0 µM) was 99%, the residual activity (EPHB3 (human); compound 10.0 µM) was 105% and the residual activity (ERBB4 (human); compound 0.1 µM) was 111%. For the same molecule, the residual activity (ERBB4 (human); compound 1.0 µM) was 95%, the residual activity (FGFR1 (human); compound 0.1 µM) was 100% and the residual activity (FGFR1 (human); compound 1.0 µM) was 95%. For the same molecule, the residual activity (FGFR1 (human); compound 10.0 µM) was 70%, the residual activity (GSK3B (human); compound 0.1 µM) was 104% and the residual activity (GSK3B (human); compound 1.0 µM) was 85%. It also gave a residual activity (GSK3B (human); compound 10.0 µM) of 72%, a residual activity (IKBKB (human); compound 0.1 µM) of 112% and a residual activity (IKBKB (human); compound 1.0 µM) of 98%. For the same molecule, the residual activity (IKBKB (human); compound 10.0 µM) was 89%, the residual activity (INSRR (human); compound 0.1 µM) was 95% and the residual activity (INSRR (human); compound 1.0 µM) was 80%. The residual activity (INSRR (human); compound 10.0 µM) was 61%, the residual activity (LCK (mouse); compound 0.1 µM) was 106% and the residual activity (LCK (mouse); compound 1.0 µM) was 112%. For the same molecule, the residual activity (LCK (mouse); compound 10.0 µM) was 80%, the residual activity (MAP2K2 (human); compound 0.1 µM) was 103% and the residual activity (MAP2K2 (human); compound 1.0 µM) was 99%. For the same molecule, the residual activity (MAP2K2 (human); compound 10.0 µM) was 90%, the residual activity (MAP3K9 (human); compound 0.1 µM) was 110% and the residual activity (MAP3K9 (human); compound 1.0 µM) was 93%. For the same molecule, the residual activity (MAPK1 (human); compound 0.1 µM) was 104%, the residual activity (MAPK1 (human); compound 1.0 µM) was 96% and the residual activity (MAPK1 (human); compound 10.0 µM) was 75%. The residual activity (MAPK13 (human); compound 0.1 µM) was 100%, the residual activity (MAPK13 (human); compound 1.0 µM) was 90% and the residual activity (MAPK13 (human); compound 10.0 µM) was 106%. For the same molecule, the residual activity (MAPKAPK3 (human); compound 0.1 µM) was 88%, the residual activity (MAPKAPK3 (human); compound 1.0 µM) was 107% and the residual activity (MAPKAPK3 (human); compound 10.0 µM) was 94%. The residual activity (MARK4 (human); compound 0.1 µM) was 98%, the residual activity (MARK4 (human); compound 1.0 µM) was 102% and the residual activity (MARK4 (human); compound 10.0 µM) was 92%. It also gave a residual activity (MELK (human); compound 0.1 µM) of 80%, a residual activity (MELK (human); compound 1.0 µM) of 75% and a residual activity (MELK (human); compound 10.0 µM) of 80%. It also gave a residual activity (MINK1 (human); compound 0.1 µM) of 106%, a residual activity (MINK1 (human); compound 1.0 µM) of 86% and a residual activity (MINK1 (human); compound 10.0 µM) of 69%. It also gave a residual activity (MKNK1 (human); compound 0.1 µM) of 105%, a residual activity (MKNK1 (human); compound 1.0 µM) of 104% and a residual activity (MKNK1 (human); compound 10.0 µM) of 58%. It also gave a residual activity (MKNK2 (human); compound 0.1 µM) of 90%, a residual activity (MKNK2 (human); compound 1.0 µM) of 100% and a residual activity (MKNK2 (human); compound 10.0 µM) of 92%. For the same molecule, the residual activity (MYLK (human); compound 0.1 µM) was 87%, the residual activity (MYLK (human); compound 1.0 µM) was 85% and the residual activity (MYLK (human); compound 10.0 µM) was 72%. The residual activity (NTRK1 (human); compound 0.1 µM) was 107%, the residual activity (NTRK1 (human); compound 1.0 µM) was 90% and the residual activity (NTRK1 (human); compound 10.0 µM) was 87%. The residual activity (PHKG1 (human); compound 0.1 µM) was 109%, the residual activity (PHKG1 (human); compound 1.0 µM) was 98% and the residual activity (PHKG1 (human); compound 10.0 µM) was 68%. For the same molecule, the residual activity (PRKAA1 or PRKAA2 (rat); compound 0.1 µM) was 98%, the residual activity (PRKAA1 or PRKAA2 (rat); compound 1.0 µM) was 85% and the residual activity (PRKAA1 or PRKAA2 (rat); compound 10.0 µM) was 83%. The residual activity (PRKACA (human); compound 0.1 µM) was 104%, the residual activity (PRKACA (human); compound 1.0 µM) was 91% and the residual activity (PRKACA (human); compound 10.0 µM) was 90%. For the same molecule, the residual activity (PRKCZ (human); compound 0.1 µM) was 97%, the residual activity (PRKCZ (human); compound 1.0 µM) was 105% and the residual activity (PRKCZ (human); compound 10.0 µM) was 97%. For the same molecule, the residual activity (ROCK2 (rat); compound 0.1 µM) was 85%, the residual activity (ROCK2 (rat); compound 1.0 µM) was 87% and the residual activity (ROCK2 (rat); compound 10.0 µM) was 91%. It also gave a residual activity (RPS6KA1 KD1 KD2 (human); compound 0.1 µM) of 101%, a residual activity (RPS6KA1 KD1 KD2 (human); compound 1.0 µM) of 87% and a residual activity (RPS6KA1 KD1 KD2 (human); compound 10.0 µM) of 62%. It also gave a residual activity (SRC (human); compound 0.1 µM) of 101%, a residual activity (SRC (human); compound 1.0 µM) of 89% and a residual activity (SRC (human); compound 10.0 µM) of 105%. For the same molecule, the residual activity ([1]; compound 0.1 µM) was 102%, the residual activity ([1]; compound 1.0 µM) was 85% and the residual activity ([1]; compound 10.0 µM) was 86%. The residual activity (TTK (human); compound 0.1 µM) was 106%, the residual activity (TTK (human); compound 1.0 µM) was 105% and the residual activity (TTK (human); compound 10.0 µM) was 80%.
